In US20050136017A1, “Hair relaxing composition comprising at least one non-hydroxide imine” (priority 2003, published 2005):

Legend:
[1] = Relaxing of naturally curly/frizzy African hair with a simplified aqueous relaxing composition
Procedure: (§1) A simplified relaxing composition was prepared, containing, as relaxing active agent, 1,1-dimethylbiguanide (Registry Number [1115-70-4]) at a concentration of 0.75M in water. The pH of the composition was 13.6. The composition was applied to naturally curly/frizzy African hair for 15 minutes at a temperature of 30° C.
as §1, with “of 0.5M” for “of 0.75M”, “was 13.5. This” for “was 13.6. The”, “for 25” for “for 15”
(§2) A simplified relaxing composition was prepared, containing as relaxing active agent, 1,3,4,6,7,8-hexahydro-2H-pyrimido[1,2-a]pyrimidine (Registry Number [5807-14-7]) at a concentration of 0.7M in water. The pH of the composition was 13.5. This composition was applied to naturally curly/frizzy African hair for 15 minutes at a temperature of 30° C.
as §2, with “0.5M” for “0.7M”, “13.4.” for “13.5.”, “25” for “15”

[2] = pH of the simplified relaxing composition; type: physicochemical
Procedure: as §1
as §1, with “of 0.5M” for “of 0.75M”, “was 13.5. This” for “was 13.6. The”, “for 25” for “for 15”
as §2
as §2, with “0.5M” for “0.7M”, “13.4.” for “13.5.”, “25” for “15”

[3] = 0.5M in water (Examples 2 and 4)

Row | SMILES | hair relaxing result (relaxing, combing/styling, feel) ([1]; 0.5M in water, pH 13.5, applied 25 minutes at 30° C. (Example 2)) | hair relaxing result (relaxing, combing/styling, feel) ([1]; 0.75M in water, pH 13.6, applied 15 minutes at 30° C. (Example 1)) | pH of the composition [2, 3] | pH of the composition ([2]; 0.75M in water (Example 1)) | hair relaxing result (relaxing, combing/styling, feel) ([1]; 0.5M in water, pH 13.4, applied 25 minutes at 30° C. (Example 4)) | hair relaxing result (relaxing, combing/styling, feel) ([1]; 0.7M in water, pH 13.5, applied 15 minutes at 30° C. (Example 3)) | pH of the composition ([2]; 0.7M in water (Example 3))
1 | CN(C)C(=N)NC(=N)N [1,1-dimethylbiguanide] | efficiently relaxed, easy to comb and style, and felt soft | efficiently relaxed, easy to comb and style, and felt soft | 13.5 | 13.6 | – | – | –
2 | C1CN=C2NCCCN2C1 [1,3,4,6,7,8-hexahydro-2H-pyrimido[1,2-a]pyrimidine] | – | – | 13.4 | – | efficiently relaxed, easy to comb and style, and felt soft | efficiently relaxed, easy to comb and style, and felt soft | 13.5
